Results from article PMC2999418, “Biological Activity and Binding Site Characteristics of the PA1b Entomotoxin on Insects from Different Orders” (Journal of Insect Science, 2007).
pKd: −log10 of the molar value. Like-named read-outs stand apart in the source and are kept apart here.

Key:
E. coli = experiment: Antimicrobial test, bacterial survival; format: cell-based; settings: increasing toxin concentration up to 64 µg-ml^-1, 24 and 48 hours
Procedure: (§1) A possible antimicrobial and antifungal activity of PA1b was next tested on four bacterial and three fungal species. The experiments were done using an increasing toxin concentration, up to 64 µg-ml^-1.

P. aeruginosa = experiment: Antimicrobial test, bacterial survival; format: cell-based; settings: increasing toxin concentration up to 64 µg-ml^-1, 24 and 48 hours
Procedure: as §1

S. aureus = experiment: Antimicrobial test, bacterial survival; format: cell-based; settings: increasing toxin concentration up to 64 µg-ml^-1, 24 and 48 hours
Procedure: as §1

E. faecium = experiment: Antimicrobial test, bacterial survival; format: cell-based; settings: increasing toxin concentration up to 64 µg-ml^-1, 24 and 48 hours
Procedure: as §1

[1] = biological target: PA1b binding protein on membrane extracts; settings: ref Gressent et al (2003), cited from earlier work
Text: Table 1. Affinity (Kd) and relative abundance (Bmax) of the PA1b binding protein on membrane extracts from different insect species and strains. | column: Kd (nM); Bmax (pmol/mg of protein)

[2] = system: D. melanogaster protein extracts; experiment: PA1b degradation assay with total insect protein extract; format: in vitro ADME, Drosophila melanogaster; settings: 200 µg D. melanogaster (L3) total protein extract, 10 µg PA1b, pH 3 to 9, 30°C, one night incubation; C18 HPLC; data not shown
Procedure: (§2) The isolation of membrane proteins for binding studies was performed as described by Gressent et al. ([2003]). For PA1b degradation tests, insect extracts were prepared as follows, 1 g of insects were ground with a mortar and pestle in liquid nitrogen. The resulting powder was resuspended in 2 ml of extraction buffer (20 mM Tris-HCl pH 8; 0.25 M sucrose; 2 mM MgCl2). The slurry was centrifuged for 2 min at 1000 g, and the supernatant was stored at -2O°C until required. All the operations were performed at 4°C.
PA1b degradation assays were performed using 10 µg of peptide (PA1b isoform mixture) in a final volume of 100 µl buffer. […]
For all assays, after a one night incubation, 150 µl of methanol were added to the mixture and incubated for 60 min at 4°C. […] PA1b peptide isoforms were detected by their absorbance at 210 nm, quantified by the measurement of the peak area and with reference to known quantities of pure peptide isoform used as standards.

C. albicans = experiment: Antifungal test, fungal growth; format: cell-based; settings: increasing toxin concentration up to 64 µg-ml^-1, 24 and 48 hours
Procedure: as §1

C. glabrata = experiment: Antifungal test, fungal growth; format: cell-based; settings: increasing toxin concentration up to 64 µg-ml^-1, 24 and 48 hours
Procedure: as §1

A. famigatus = experiment: Antifungal test, fungal growth; format: cell-based; settings: increasing toxin concentration up to 64 µg-ml^-1, 24 and 48 hours
Procedure: as §1

[3] = biological target: PA1b binding protein on membrane extracts; experiment: 125I-PA1b binding (competition) on insect membrane extracts; set-up: species or system Aphis gossypii; settings: A. gossypii membrane extracts; competition with purified 3741 isoform
Procedure: as §2
The peptidic toxin PA1b-3471 isoform was labelled with I^125 to a specific radioactivity of about 900 Ci.mmor^-1, and then used for binding studies with membrane extracts, according to Gressent et al. ([2003]).
PA1b binding activity was present in all insect species, except for the resistant weevil strains and the pea specific pest Bruchus pisorum, regardless of the sensitivity or insensitivity of these insects to PA1b toxicity, as evaluated from our insect bioassays. […] The relative abundance of the binding sites was also slightly different in this group of species, varying from 10 pmol/mg of protein for T. pretiosum to a maximum of 79 pmol/mg of protein for M. persicae.

Mamestra brassicae = experiment: Cabbage moth larval toxicity test on artificial medium with toxin; format: in vivo; settings: 1000 µg PA1b per g of diet, larvae L1 to pupa; data not shown
Procedure: The cabbage moth Mamestra brassicae (Lepidoptera) was grown on the artificial medium described by Poitout and Bues ([1974]). PA1b was added to this media and the mortality of larvae (from L1 to pupa) was monitored daily.
(§3) All toxicity assays were carried out using a mixture of PA1b isoforms (98% purity by HPLC). All tests were performed on at least 30 insects for assays and for control test (without toxin), except for the three aphid species (50 insects) and for Trichogramma (more than 300 eggs by assays). When adults were used, the insects were synchronized at the imaginal molt. The statistical analyses were performed using the JMP software (SAS, Grégy-sur-Yerres FRA).

Myzus persicae = experiment: Aphid growth and toxicity assay on artificial diet with toxin; format: in vivo; settings: doses up to 1000 µg.ml^-1 in artificial diet
Procedure: (§4) Growth and toxicity assays were carried out on the aphids Aphis gossypii, Myzus persicae and Acyrthosiphon pisum, Hemiptera, according to Rahbé and Febvay ([1993]). Larvae of the fruit fly Drosophila melanogaster, Diptera, were provided by Dr. Allemand (UMR 5558 CNRS-UCBL, Lyon, France).
as §3
(§5) Figure 2. Effects of PA1b on three aphid species. Tests were carried out with artificial diet supplemented with the toxin at increasing concentrations, and mortality of the insects was monitored daily (relative larval survival is used in the graph). Circle : A. pisum; Square : M. persicae; Triangle : A. gossypii.

Aphis gossypii = experiment: as above; format: in vivo; settings: 1000 µg.ml^-1 in artificial diet
Procedure: as §4, §3, §5

Drosophila melanogaster = settings: cited from earlier work
Procedure: However, diet is not sufficient alone to explain insensitivity, as the three aphid species tested were assayed on the same artificial diet with very different results. We can thus suppose ...

ASCNGVCSPFEMPPCGTSACRCIPVGLVIGYCR NPSG (bicyclic or more) [PA1b, plant peptide of 37 amino acids purified from pea (Pisum sativum) seeds; entomotoxic cystine-knot peptide with three disulfide bonds]
effect on bacterial survival (E. coli): no effect was detected
effect on bacterial survival (P. aeruginosa): no effect was detected
effect on bacterial survival (S. aureus): no effect was detected
effect on bacterial survival (E. faecium): no effect was detected
pKd ([1]; S. granarius Brayard membrane extracts): 8.20
pKd ([1]; S. zeamais Ls membrane extracts): 8.05
recovered PA1b after incubation with insect proteins versus heat-denatured control [2]: without any difference between control and test assays
effect on fungal growth (C. albicans): no effect was detected
effect on fungal growth (C. glabrata): no effect was detected
effect on fungal growth (A. famigatus): no effect was detected
pKd [3]: 7.41
effect on mortality, development and ecdysis (Mamestra brassicae): no effect
mortality (Myzus persicae): no mortality
lethality (Aphis gossypii): 37%
toxicity to larvae grown on a fruit-based mixture (Drosophila melanogaster; fruit-based mixture diet, dose similar to that used on other insects, delayed larval development, increased larval mortality, ref Gressent, unpublished results): significantly toxic
sensitivity to the toxin (Drosophila melanogaster; ref Delobel et al.1998): insensitive
